Measurements as given in patent US12398107B2, “Fungicidal nitroanilino substituted pyrazoles” (FMC Corporation, priority 2018, dated 2025).

Experiments:
Assay type in all cases: in vivo
Septoria tritici = assay: Test A: wheat leaf blotch, preventive spray on wheat seedlings; settings: 50 ppm, 100 = 100% disease control, 0 = no control relative to controls
Procedure, shortened: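 Preventive test: seedlings sprayed to run-off one day before Septoria tritici spore inoculation, with ppm doses in acetone/water containing 250 ppm PEG400. After 48 h at 24 °C in saturated air and 17 days at 20 °C, plants were scored 0–100 for disease control versus untreated controls.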

Phakopsora pachyrhizi = assay: Test D: Asian soybean rust, preventive spray on soybean seedlings; settings: 50 ppm, 100 = 100% disease control, 0 = no control
Procedure, shortened: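 Soybean seedlings sprayed to run-off with compound suspension (ppm, in 50/50 acetone/water with 250 ppm PEG400), inoculated next day with P. pachyrhizi spores, held 24 h saturated at 22°C then 8 days at 22°C. Visual rating 0-100% disease control relative to controls.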

Botrytis cinerea = assay: Test E: tomato Botrytis, preventive spray on tomato seedlings; settings: 50 ppm, 100 = 100% disease control, 0 = no control
Procedure, shortened: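 Preventive test: spore inoculation one day after run-off spraying of compound suspension (3% acetone, acetone/water 50/50, 250 ppm PEG400). Incubation 20 °C saturated humidity for 48 h, followed by 3 days at 24 °C growth chamber; disease control scored visually, 100 = full control.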

Alternaria solani = assay: Test F: tomato early blight, preventive spray on tomato seedlings; settings: 50 ppm, 100 = 100% disease control, 0 = no control
Procedure, shortened: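 Preventive test: one day after seedlings were sprayed to run-off with ppm-level suspensions (acetone/water 50/50, 250 ppm PEG400), A. solani spore inoculation followed. Incubation was 48 h at 27° C in saturated air plus 3 days at 20° C; disease control was scored visually versus controls (100 = full control).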

[1] = tested on: Puccinia recondita f. sp. tritici; assay: Test B: wheat leaf rust, preventive spray on wheat seedlings; settings: 50 ppm, 100 = 100% disease control, 0 = no control relative to controls
Procedure, shortened: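 Wheat seedlings got a run-off spray (ppm, acetone/water 50/50, 250 ppm PEG400) and one day later a spore inoculum. After 24 h at 20° C. in saturated air and 7 days at 20° C., disease was scored as % control relative to controls (100 = full control).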

[2] = tested on: Blumeria graminis f. sp. tritici; assay: Test C: wheat powdery mildew, preventive spray on wheat seedlings; settings: 50 ppm, rated after 8 days, 100 = 100% disease control, 0 = no control
Procedure, shortened: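 Wheat seedlings got a run-off spray of test suspension (ppm in acetone/water 50/50, 250 ppm PEG400, acetone 3% of volume), then spore-dust inoculation with wheat powdery mildew one day later. After 8 days' growth-chamber incubation at 20° C, disease control scored visually on a 0–100 scale versus untreated controls.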

Row | Compound | Test A disease control rating (wheat leaf blotch) (Septoria tritici) [%] | Test D disease control rating (Asian soybean rust) (Phakopsora pachyrhizi) [%] | Test E disease control rating (tomato Botrytis) (Botrytis cinerea) [%] | Test F disease control rating (tomato early blight) (Alternaria solani) [%] | Test B disease control rating (wheat leaf rust) [1] [%] | Test C disease control rating (wheat powdery mildew) [2] [%]
1 | COc1ccc(-c2c(C)nn(C)c2Nc2c(Cl)cccc2[N+](=O)[O-])c(C)c1 [Compound 35] | 99 | 0 | 0 | 0 | 85 | 0
2 | Cc1nn(C)c(Nc2ccc(OCC(F)F)cc2[N+](=O)[O-])c1-c1ccc(F)cc1Cl [Compound 36] | 100 | 25 | 100 | 0 | 89 | 56
3 | Cc1nn(C)c(Nc2c(Cl)cc(Cl)cc2[N+](=O)[O-])c1-c1ccc(F)cc1Br [Compound 37] | 100 | 0 | 88 | 78 | 100 | 98
4 | Cc1nn(C)c(Nc2c(Cl)cccc2[N+](=O)[O-])c1-c1c(F)cccc1Cl [Compound 38] | 100 | 0 | 88 | 0 | 99 | 95
5 | Cc1nn(C)c(Nc2c(F)cc(F)cc2[N+](=O)[O-])c1-c1c(F)cccc1Cl [Compound 39] | 100 | 73 | 88 | 99 | 100 | 99
6 | Cc1cc(F)c(Nc2c(-c3ccc(F)cc3Br)c(C)nn2C)c([N+](=O)[O-])c1 [Compound 40] | 100 | 82 | 98 | 100 | 100 | 100
7 | Cc1nn(C)c(Nc2c(Cl)cccc2[N+](=O)[O-])c1-c1ccc(F)cc1Br [Compound 41] | 100 | 77 | 77 | 0 | 100 | 94
8 | Cc1cccc([N+](=O)[O-])c1Nc1c(-c2ccc(F)cc2Br)c(C)nn1C [Compound 42] | 100 | 0 | 91 | 0 | 100 | 96
9 | Cc1nn(C)c(Nc2c(Cl)cc(F)cc2[N+](=O)[O-])c1-c1ccc(F)cc1Br [Compound 43] | 100 | 65 | 96 | 64 | 100 | 97
10 | Cc1nn(C)c(Nc2ccc(F)cc2[N+](=O)[O-])c1-c1c(F)cccc1Cl [Compound 44] | 100 | 0 | 95 | 46 | 99 | 98
11 | CCc1nn(C)c(Nc2ccc(OC)cc2[N+](=O)[O-])c1-c1ccc(F)cc1F [Compound 45] | 100 | 0 | 99 | 33 | 86 | 95
12 | CCc1nn(C)c(Nc2c(F)cccc2[N+](=O)[O-])c1-c1ccc(F)cc1F [Compound 46] | 100 | 0 | 99 | 81 | 98 | 99
13 | Cc1nn(C)c(Nc2c(F)cc(I)cc2[N+](=O)[O-])c1-c1ccc(F)cc1Cl [Compound 47] | 100 | 92 | 95 | 96 | 97 | 89
14 | COc1ccc(-c2c(C)nn(C)c2Nc2c(F)cccc2[N+](=O)[O-])c(C)c1 [Compound 48] | 100 | 0 | 97 | 97 | 95 | 89
15 | Cc1nn(C)c(Nc2c(Cl)cc(F)cc2[N+](=O)[O-])c1-c1c(F)cccc1Cl [Compound 49] | 100 | 25 | 94 | 26 | 100 | 95
16 | CCc1nn(C)c(Nc2c(F)cc(F)cc2[N+](=O)[O-])c1-c1ccc(F)cc1F [Compound 50] | 100 | 0 | 92 | 98 | 98 | 100
17 | Cc1nn(C)c(Nc2c(F)cc(F)cc2[N+](=O)[O-])c1-c1ccc(F)cc1Br [Compound 51] | 100 | 79 | 98 | 99 | 100 | 100
18 | COc1ccc(Nc2c(-c3ccc(F)cc3Br)c(C)nn2C)c([N+](=O)[O-])c1 [Compound 52] | 100 | 59 | 99 | 94 | 100 | 90
19 | Cc1nn(C)c(Nc2c(F)cccc2[N+](=O)[O-])c1-c1c(Cl)cccc1Cl [Compound 53] | 100 | 0 | 98 | 98 | 100 | 98
